Results: patent US20240181000A1, “LGG-DERIVED PEPTIDES AND METHODS OF USE THEREOF” (Ohio State Innovation Foundation, priority 2021, published 2024)
Read-outs that look alike come from different tables or passages of the source. Marks after values point to notes of the source that are not given here. No end group written: not given here.

What was measured:
[1] = test system: APEC O78; assay type: cell-based, E. coli
Experimental: Anti-APEC activity determination: The anti-APEC activity of peptides was determined in LB broth following CLSI guidelines. Briefly, overnight grown APEC O78 was adjusted to 5×10^5 CFU/mL concentration in fresh LB media. One-hundred microliters of APEC suspension was aliquoted into the wells of the 96-well plate. Peptides were added to the wells at 6 mM and 12 mM concentrations and incubated at 37° C. in TECAN Sunrise™ absorbance microplate reader with kinetic absorbance measurement set at every 30 mins for 12 h. Sterile media and DMSO (solvent) were used as controls. The growth inhibitory activity of the peptides against APEC was calculated using the formula: (OD600 DMSO treated well−OD600 peptide treated well)/OD600 DMSO treated well×100%.
The minimum inhibitory concentration (MIC) was determined for selected peptides (P1, P2, P3, and P4) using similar assay as above. Peptides were added to the wells of the 96-well plate at 6 mM, 9 mM, 12 mM, 15 mM, and 18 mM concentrations. The peptide concentration at which there is no visible APEC growth (no OD increase) was determined as MIC. Two independent experiments were conducted.
Arginine and lysine substituted peptide analogues: The non-essential amino acid residues identified in each peptide were substituted with arginine/lysine to test whether these substitutions enhance the anti-APEC activity of peptides. The MICs of arginine and lysine substituted peptide analogues ([…] (SEQ ID NO:37), […] (SEQ ID NO:38), […] (SEQ ID NO:39), KDENK (SEQ ID NO:41), PDEKK (SEQ ID NO:42), KDEKK (SEQ ID NO:43), KHTAPK (SEQ ID NO:45), VKTAPK (SEQ ID NO:46), VHTKPK (SEQ ID NO:47), and KKTKPK (SEQ ID NO:48)) were determined as above and compared with original peptides.

[2] = test system: cecal microbiota; experiment: Cecal microbiome analysis (peptides, ST infected); assay type: in vivo, chickens; settings: for Relative Abundance (%) Acinetobacter / Relative Abundance (%) Blautia / Relative Abundance (%) Caproiciproducens / Relative Abundance (%) Enterobacteriaceae (unidentified) / Relative Abundance (%) Epulopiscium / Relative Abundance (%) Lachnospiraceae (unidentified) / Relative Abundance (%) Lachnospiraceae NK4A136 group / Relative Abundance (%) Lactobacillus / Relative Abundance (%) Sellimonas / Relative Abundance (%) [Clostridium] innocuum group / Relative Abundance (%) [Eubacterium] coprostanoligenes group / Relative abundance (%) Anaerotruncus / Relative abundance (%) Clostridium sensu stricto 1 / Relative abundance (%) Enterococcus / Relative abundance (%) Erysipelatoclostridium / Relative abundance (%) Escherichia-Shigella / Relative abundance (%) Flavonifractor / Relative abundance (%) Lachnospiraceae (uncultured) / Relative abundance (%) Oscillibacter / Relative abundance (%) Pediococcus / Relative abundance (%) Ruminiclostridium 5 / Relative abundance (%) Ruminiclostridium 9 / Relative abundance (%) Ruminococcus torques group: genus
Experimental: Cecal microbiome analysis: To evaluate the role P1, P2, and P4 (50 mg/kg) treatment on the cecal microbiome of chickens, 16S rRNA based metagenomic study was conducted as previously described. DNA was extracted from approximately 0.2 g of cecal content using PureLink™ Microbiome DNA Purification Kit (Thermofisher Scientific). After which, RNA was removed with the treatment of RNase A (2 μL of 100 mg/mL solution per sample: Qiagen). NanoDrop 2000c Spectrophotometer (ThermoFisher Scientific) was used to check the quality and measure the quantity of the DNA. The extracted DNA was used in 16S rRNA V4-V5 sequencing done at MCIC (mcic.osu.edu/genomics/illumina-sequencing). Amplicon libraries were prepared using IFU KAPA HiFi HotStart ReadyMixPCR Kit (Roche). PCR products were cleaned using Agencourt AMPure XP beads (BECKMAN COULTER Life Sciences). Nextera XT DNA Library Preparation Kit (Illumina) was used to generate Illumina library and sequencing done with Illumina MiSeq platform generating paired end 300-bp reads. QIIME 2 (Quantitative Insights Into Microbial Ecology) bioinformatics platform (qiime2.org/) was used to conduct metagenomic analysis. Quality control of the raw reads was performed using FastQC 0.11.8 (Babraham Bioinformatics). Trimmomatic-0.33 was used to trim the adaptor and other Illumina-specific sequences (www.usadellab.org/cms/?page=trimmomatic). After which trimmed sequences (fastq.gz) were then imported into QIIME 2 as a manifest file format (PairedEndManifestPhred33V2). DADA2 was then used for the feature table construction and additional filtering of sequences. Taxonomic analysis was performed using Naive Bayes classifiers trained on the Silva 132 99% OTUs (silva-132-99-nb-classifier.qza) database. Phylogenetic diversity was analyzed using align-to-tree-mafft-fasttree pipeline. Additionally, Shannon's diversity index (alpha diversity) and Bray-Curtis distance (beta diversity) were analyzed using core-metrics-phylogenetic pipeline (docs.qiime2.org/2019.7/tutorials/moving-pictures/). Alpha and beta diversity statistical significance were analyzed using Kruskal-Wallis and PERMANOVA tests (P<0.05), respectively. The statistical difference (P<0.05) in the taxonomic composition between the groups was determined using Mann Whitney Test.

[3] = test system: ST; assay type: in vivo, chickens; settings: for Reduction of percent of birds positive for ST in the liver: 50 mg/kg twice daily
Experimental: Efficacy of peptides in chickens: To assess the efficacy of peptides against ST in chickens, one-day-old specific pathogen free (SPF) layer chickens from a Salmonella free flock at The Ohio State University were obtained and provided with feed and water ad libitum. Chickens (n=10/group) were treated with P1, P2, or P4 at 50 mg/kg body weight twice-daily doses. Peptides were dissolved in water to reach final concentration of 50 mg/kg and orally administered from day 1 to day 7. Early intestinal colonization is important for poultry health and thus is why peptide treatment was begun at day 1. Birds were challenged with 10^4 CFU of nalidixic acid resistant ST on day 3. At day 10 [7 days post infection (dpi)] chickens were euthanized, and the cecum, liver, and spleen were collected to determine the peptide's ability to reduce ST infection. The cecum was suspended in PBS, homogenized, ten-fold serially diluted, and plated on XLT4 agar plates supplemented with 50 μg/ml nalidixic acid and incubated for 24 h at 37° C. The liver and spleen were individually suspended in PBS and the undiluted homogenized suspension was plated directly and incubated for 24 h at 37° C. One milliliter of the undiluted homogenized liver and spleen was enriched in 9 ml of tetrathionate broth (TTB) for 24 h at 37° C. After incubation they were plated as described above to enumerate ST in each tissue. The body weights of chickens were measured on the day of necropsy (day 10). An untreated positive control group (PC: infected but untreated) and a negative control group (NC: non infected and non-treated) were included in the study. A Mann-Whitney test was used to determine statistical significance (P<0.05) of treatment on ST load in cecum and on body weight.

Row | Substance | MIC50 [1] | Relative Abundance (%) Acinetobacter [2] | Relative Abundance (%) Blautia [2] | Relative Abundance (%) Caproiciproducens [2] | Relative Abundance (%) Enterobacteriaceae (unidentified) [2] | Relative Abundance (%) Epulopiscium [2] | Relative Abundance (%) Lachnospiraceae (unidentified) [2] | Relative Abundance (%) Lachnospiraceae NK4A136 group [2] | Relative Abundance (%) Lactobacillus [2] | Relative Abundance (%) Sellimonas [2] | Relative Abundance (%) [Clostridium] innocuum group [2] | Relative Abundance (%) [Eubacterium] coprostanoligenes group [2] | Relative abundance (%) Anaerotruncus [2] | Relative abundance (%) Clostridium sensu stricto 1 [2] | Relative abundance (%) Enterococcus [2] | Relative abundance (%) Erysipelatoclostridium [2] | Relative abundance (%) Escherichia-Shigella [2] | Relative abundance (%) Flavonifractor [2] | Relative abundance (%) Lachnospiraceae (uncultured) [2] | Relative abundance (%) Oscillibacter [2] | further results
1 | PDENK [Peptide P2, PDENK] | 9.5 mM | 0.00% | 0.00% | 0.63% | 6.22% | 0.17% | 37.10% | 0.00% | 5.57% | 1.76% | 0.00% | 0.00% | 0.00% | 0.00% | 0.00% | 5.56% | 13.25% | 2.33% | 4.21% | 0.00% | MIC ([1]; 100% APEC growth inhibition): 12 mM; Relative abundance (%) Pediococcus [2]: 0.00%; Relative abundance (%) Ruminiclostridium 5 [2]: 0.00%; Relative abundance (%) Ruminiclostridium 9 [2]: 0.00† %; Relative abundance (%) Ruminococcus torques group [2]: 23.19%; Reduction of percent of birds positive for ST in the liver [3]: 30%; Reduction of ST colonization in the cecum ([3]; 50 mg/kg twice daily 7 days, day 10 (7 dpi)): 1.8 logs
2 | MLNERVK [Peptide P4, MLNERVK] | 20.0 mM | 0.00% | 1.60% | 0.00% | 4.54% | 0.00% | 44.19% | 0.53% | 7.01% | 0.57% | 0.00% | 0.00% | 0.48% | 0.00% | 0.00% | 3.51% | 3.16† % | 1.20% | *11.71% | 1.35% | MIC [1]: > 18 mM; Relative abundance of Lachnospiraceae ([2]; family, negative control 53%): 78%; Relative abundance (%) Pediococcus [2]: 0.75%; Relative abundance (%) Ruminiclostridium 5 [2]: 0.00%; Relative abundance (%) Ruminiclostridium 9 [2]: 0.13† %; Relative abundance (%) Ruminococcus torques group [2]: 19.27%; Reduction of percent of birds positive for ST in the liver [3]: 30%
